From patent publication US7265135B2 (Ortho-McNeil Pharmaceutical, Inc., priority 2001, dated 2007)

target: T1, human histamine H3 receptor (Homo sapiens, UniProt Q9Y5N1); assay: [3H]-N-methylhistamine binding assay; settings: membranes of histamine H3 receptor-expressing SK-N-MC cells; 0.8 nM [3H]-N-methylhistamine; 45 min at 25° C.; Ki=(IC50)/(1+([L]/(KD))
T1 construct: One μg supercoiled H3 receptor cDNA was added to the cells and mixed; expressed in transfected cells; membranes prepared from cell pellets
T1 sequence (Q9Y5N1 whole entry): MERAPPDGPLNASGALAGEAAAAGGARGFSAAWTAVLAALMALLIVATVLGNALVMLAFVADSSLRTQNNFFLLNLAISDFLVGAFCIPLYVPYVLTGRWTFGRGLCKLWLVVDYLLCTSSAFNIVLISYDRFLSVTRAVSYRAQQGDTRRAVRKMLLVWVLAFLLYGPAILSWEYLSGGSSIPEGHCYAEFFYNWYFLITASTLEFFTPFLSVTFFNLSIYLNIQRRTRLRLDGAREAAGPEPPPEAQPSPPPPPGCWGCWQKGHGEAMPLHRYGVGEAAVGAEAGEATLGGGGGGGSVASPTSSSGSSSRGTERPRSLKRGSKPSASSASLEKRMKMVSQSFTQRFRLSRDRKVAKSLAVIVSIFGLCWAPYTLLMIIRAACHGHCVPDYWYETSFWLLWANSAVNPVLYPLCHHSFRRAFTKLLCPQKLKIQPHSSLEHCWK
Description: The histamine H3 receptor binding effectiveness of compounds of the present invention was determined using the human histamine H3 receptor, Lovenberg et al Mol. Pharmacol. 1999, 1107. Screening using the human receptor is particularly important for the identification of new therapies for the treatment of human disease. Prior binding assays, for example, relied on rat synaptosomes (Garbarg et al J. Pharmacol. Exp. Ther. 1992, 263, 304), rat cortical membranes (West et al Mol. Pharmacol. 1990, 610), and guinea pig brain (Korte et al Biochem. Biophys. Res. Commun. 1990, 978). A recent comparative study comparing human H3 receptor activity with H3 receptors from rodent and primate have shown significant differences in the respective pharmacology of the rodent and primate receptors to the human receptor. (West et al Eur. J. Pharmacol. 1999, 233; Lovenberg et al., J. Pharmacol. Exp. Ther. 2000, 293, 771-778.)
A 10 cm tissue culture dish with a confluent monolayer of SK-N-MC cells was split two days prior to transfection. Using sterile technique the media was removed and the cells were detached from the dish by the addition of trypsin. One fifth of the cells were then placed onto a new 10 cm dish. Cells were grown in a 37° C. incubator with 5% CO2 in Minimal Essential Media Eagle with 10% Fetal Bovine Serum. After two days cells were approximately 80% confluent. These were removed from the dish with trypsin and pelleted in a clinical centrifuge. The pellet was then re-suspended in 400 μL complete media and transferred to an electroporation cuvette with a 0.4 cm gap between the electrodes (Bio-Rad #165-2088). One μg supercoiled H3 receptor cDNA was added to the cells and mixed. The voltage for the electroporation was set at 0.25 kV, the capacitance is set at 960 μF. After electroporation the cells were diluted into 10 mL complete media and plated onto four 10 cm dishes. Because of the variability in the efficiency of electroporation four different concentrations of cells were plated. The ratios used were; 1:20, 1:10, 1:5, with the remainder of the cells being added to the fourth dish. The cells were allowed to recover for 24 h before adding the selection media (complete media with 600 μg/mL G418). After 10 days dishes were analyzed for surviving colonies of cells. Dishes with well isolated colonies were used. Cells from individual colonies were isolated and tested. SK-N-MC cells were used because they give efficient coupling for inhibition of adenylate cyclase. The clones that gave the most robust inhibition of adenylate cyclase in response to histamine were used for further study.
Cell pellets from histamine H3 receptor-expressing SK-N-MC cells were homogenized in 20 mM Tris HCl/0.5 mM EDTA. Supernatants from a 800 g spin were collected, recentrifuged at 30,000 g for 30 minutes. Pellets were re-homogenized in 50 mM Tris/5 mM EDTA (pH 7.4). Membranes were incubated with 0.8 nM [^3H]-N-methylhistamine plus/minus test compounds for 45 min at 25° C. and harvested by rapid filtration over GF/C glass fiber filters (pretreated with 0.3% polyethylenimine) followed by four washes with ice cold buffer. Filters were dried, added to 4 mL scintillation cocktail and then counted on a liquid scintillation counter. Non-specific binding was defined with 10 μM histamine. PKi values were calculated based on a KD of 800 pM and a ligand concentration ([L]) of 800 pM according to the formula: Ki=(IC50)/(1+([L]/(KD))

Row | Structure (SMILES) | Ki
1 | CC(C)N1CCC(COc2ncc(C(=O)c3ccc(C(F)(F)F)cc3)n2C)CC1 [[2-(1-Isopropyl-piperidin-4-ylmethoxy)-3-methyl-3H-imidazol-4-yl]-(4-trifluoromethyl-phenyl)-methanone] | 4.1 nM
2 | Cn1c(C(=O)c2cccc3ccccc23)cnc1OCCCN1CCCCC1 [[3-Methyl-2-(3-piperidin-1-yl-propoxy)-3H-imidazol-4-yl]-naphthalen-1-yl-methanone] | 79 nM
3 | CN(C)CCCSc1ncc(C(=O)c2ccc(Br)cc2)n1C [(4-Bromophenyl)-[2-(3-dimethylamino-propylsulfanyl)-3-methyl-3H-imidazol-4-yl]-methanone] | 1.6 nM
4 | CC(C)N1CCC(Oc2ncc(C(=O)c3ccc(Cl)cc3)n2C)CC1 [(4-Chlorophenyl)-[2-(1-isopropyl-piperidin-4-yloxy)-3-methyl-3H-imidazol-4-yl]-methanone] | 25 nM
5 | CC(C)N1CCC(COc2ncc(C(=O)c3cc(Cl)cc(Cl)c3)n2C)CC1 [(3,5-Dichlorophenyl)-[2-(1-isopropyl-piperidin-4-ylmethoxy)-3-methyl-3H-imidazol-4-yl]-methanone] | 4 nM
6 | Cn1c(C(=O)c2ccc(Cl)cc2)cnc1SCCCN1CCCCC1 [(4-Chlorophenyl)-[3-methyl-2-(3-piperidin-1-yl-propylsulfanyl)-3H-imidazol-4-yl]-methanone] | 3.1 nM
7 | CN(C)CCSc1ncc(C(=O)c2ccc(Cl)cc2)n1C [(4-Chloro-phenyl)-[2-(2-dimethylamino-ethylsulfanyl)-3-methyl-3H-imidazol-4-yl]methanone] | 98 nM
8 | CN1CCCC1CCSc1ncc(C(=O)c2ccc(Cl)cc2)n1C (stereo not shown) [(4-Chloro-phenyl)-{3-methyl-2-[2-(1-methyl-pyrrolidin-2-yl)-ethylsulfanyl]-3H-imidazol-4-yl}-methanone] | 2 nM
9 | CCC(C)N1CCC(COc2ncc(C(=O)c3ccc(Br)cc3)n2C)CC1 (stereo not shown) [(4-Bromophenyl)-[2-(1-sec-butyl-piperidin-4-ylmethoxy)-3-methyl-3H-imidazol-4-yl]-methanone] | 9 nM
10 | CN(C)CCC[S+]([O-])c1ncc(C(=O)c2ccc(Cl)cc2)n1C (stereo not shown) [(4-Chloro-phenyl)-[2-(3-dimethylamino-propane-1-sulfinyl)-3-methyl-3H-imidazol-4-yl]-methanone] | 315 nM
11 | CC(C)N1CCC(COc2ncc(C(O)c3ccc(C#N)cc3)n2C)CC1 (stereo not shown) [4-{Hydroxy-[2-(1-isopropyl-piperidin-4-ylmethoxy)-3-methyl-3H-imidazol-4-yl]-methyl}-benzonitrile] | 7.6 nM
12 | CN(C)CCCSc1ncc(Cc2ccc(Cl)cc2)n1C [{3-[5-(4-Chlorobenzyl)-1-methyl-1H-imidazol-2-ylsulfanyl]-propyl}-dimethyl-amine] | 22 nM
13 | CC(C)N1CCC(COc2ncc(C(=O)c3ccc(F)cc3)n2C)CC1 [(4-Fluorophenyl)-[2-(1-isopropyl-piperidin-4-ylmethoxy)-3-methyl-3H-imidazol-4-yl]-methanone] | 2.5 nM
14 | CN1CCC(Sc2ncc(C(=O)c3ccc(Cl)cc3)n2C)CC1 [(4-Chloro-phenyl)-[3-methyl-2-(1-methyl-piperidin-4-ylsulfanyl)-3H-imidazol-4-yl]-methanone] | 7 nM
15 | Cn1c(C(=O)c2ccc(Br)cc2)cnc1SCCCN1CCCCC1 [(4-Bromophenyl)-[3-methyl-2-(3-piperidin-1-yl-propylsulfanyl)-3H-imidazol-4-ylmethanone] | 7.5 nM
16 | CC(C)N1CCC(COc2ncc(C(=O)c3ccc(Cl)cc3)n2C)CC1 [(4-Chlorophenyl)-[2-(1-isopropylpiperidin-4-ylmethoxy)-3-methyl-3H-imidazol-4-yl]-methanone] | 3.7 nM
17 | CC(C)N1CCC(COc2ncc(C(=O)c3cccc(Cl)c3)n2C)CC1 [(3-Chlorophenyl)-[2-(1-isopropyl-piperidin-4-ylmethoxy)-3-methyl-3H-imidazol-4-yl]-methanone] | 2.8 nM
18 | CN(C)CCCSc1ncc(C(=O)c2ccccc2)n1C [[2-(3-Dimethylamino-propylsulfanyl)-3-methyl-3H-imidazol-4-yl]-phenyl-methanone] | 4 nM
19 | CN(C)CCCSc1ncc(C(=NO)c2ccc(Cl)cc2)n1C (mixture of isomers) [(4-Chlorophenyl)-[2-(3-dimethylamino-propylsulfanyl)-3-methyl-3H-imidazol-4-yl]-methanone oxime] | 3.2 nM
20 | Cn1c(CN2CCCCC2)cnc1OCCCN1CCCCC1 [[3-Methyl-2-(3-piperidin-1-yl-propoxy)-3H-imidazol-4-yl]-piperidin-1-yl-methane] | 36.4 nM
21 | CC(C)N1CCC(COc2ncc(C(=O)c3ccc(Br)cc3)n2C)CC1 [(4-Bromophenyl)-[2-(1-isopropyl-piperidin-4-ylmethoxy)-3-methyl-3H-imidazol-4-yl]-methanone] | 5.3 nM
22 | CC(C)N1CCC(COc2ncc(C(=O)c3ccc([N+](=O)[O-])cc3)n2C)CC1 [[2-(1-Isopropyl-piperidin-4-ylmethoxy)-3-methyl-3H-imidazol-4-yl]-(4-nitro-phenyl)-methanone] | 4.6 nM
23 | CCN1CCC(COc2ncc(C(=O)c3ccc(Br)cc3)n2C)CC1 [(4-Bromophenyl)-[2-(1-ethyl-piperidin-4-ylmethoxy)-3-methyl-3H-imidazol-4-yl]-methanone] | 6.6 nM
24 | CN(C)CCCSc1ncc(C(=O)c2ccc(Cl)cc2)n1C [(4-Chlorophenyl)-[2-(3-dimethylamino-propylsulfanyl)-3-methyl-3H-imidazol-4-yl]-methanone] | 2 nM
25 | CC(C)N1CCC(Sc2ncc(C(=O)c3ccc(Cl)cc3)n2C)CC1 [(4-Chlorophenyl)-[2-(1-isopropyl-piperidin-4-ylsulfanyl)-3-methyl-3H-imidazol-4-yl]-methanone] | 3 nM
26 | CC(C)N1CCC(COc2ncc(C(=O)c3ccccc3Cl)n2C)CC1 [(2-Chlorophenyl)-[2-(1-isopropyl-piperidin-4-ylmethoxy)-3-methyl-3H-imidazol-4-yl]-methanone] | 1.3 nM

same assay, conditions: value printed in text of Example XVI Step B, no unit at the place

Row | Structure (SMILES) | Ki
27 | CN(C)CCCS(=O)(=O)c1ncc(C(=O)c2ccc(Cl)cc2)n1C [(4-Chlorophenyl)-[2-(3-dimethylamino-propane-1-sulfonyl)-3-methyl-3H-imidazol-4-yl]-methanone] | 10000 nM
28 | Cn1c(C(=O)c2ccc(Cl)cc2)cnc1S(=O)(=O)CCC[N+](C)(C)[O-] | 10000 nM
